In assay [1] the test system is diet induced obese rats. The assay is described as follows: Anti-obese activity in diet induced obese rats (treatment after 8 weeks high fat diet). The note with it: 7 mg/kg per day oral, vs untreated control group. Format: in vivo, Sprague-Dawley rats. The method, then:
Selected healthy Sprague-Dawley rats were randomly assigned for control or various treatment groups (n=6). All the animals allocated for the study were made obese through dietary intervention by feeding high fat diet ad libitum for 8 weeks. After 8 weeks, the treatment group of animals was given oral administration of 250 mg/kg of Piper betle 60% methanol extract per day in 10 mL of 0.5% CMC, using gastric tube for 8 week study duration. The control group of animals was given 10 ml/kg of 0.5% CMC. The animals of positive control group were given 7 mg/kg sibutramine per day in 10 mL of 0.5% CMC. Food and water consumptions were recorded daily, body weights were recorded weekly and fasting blood samples were collected before initiation, after 4th week and 8th week (termination) of the study.
Selected healthy Sprague-Dawley rats were randomly assigned to control or various treatment groups (n=6). All the animals allocated for the study were made obese through dietary intervention by feeding high fat diet ad libitum for 8 weeks. […] Food and water consumption were recorded daily, body weights were recorded weekly and fasting blood samples were collected before initiation, after 4th week and 8th week (termination) of the study.

The test system of assay [2] is diet induced obesity in rats. The assay can be described thus: Protective effect against diet induced obesity in rats (treatment simultaneous with high fat diet). Format: in vivo, Sprague-Dawley rats. As to conditions: 7 mg/kg per day oral, 8 weeks, vs untreated control group. The method, then:
Selected healthy Sprague-Dawley rats were randomly assigned to control or various treatment groups (n=6). All the animals allocated for protective phase of the study were on dietary intervention by feeding high fat diet ad libitum and the animals allocated to treatment groups were simultaneously given oral administration of 250 mg/kg Piper betle hydroalcohol extract per day in 10 mL of 0.5% CMC, using gastric tube for the entire 8 week study duration. The test animals of the control group were simultaneously given 10 ml/kg 0.5% CMC. The animals of positive control group were given 7 mg/kg sibutramine in 10 mL of 0.5% CMC. Food and water consumptions were recorded daily, body weights were recorded weekly and fasting blood samples were collected before initiation, after 4th week and 8th week (termination) of the study. […] Upon administration of Piper betle alcohol extract for a period of 60 days, the level of triglyceride in the obese rats was reduced by 33%. The levels of serum cholesterol and LDL were reduced by 22% and 23% respectively, whereas the level of HDL was increased by 11%.
Selected healthy Sprague-Dawley rats were randomly assigned to control or various treatment groups (n=6). […] Food and water consumption were recorded daily, body weights were recorded weekly and fasting blood samples were collected before initiation, after 4th week and 8th week (termination) of the study. […]

As to `CC(C)CC(N(C)C)C1(c2ccc(Cl)cc2)CCC1` (centres unmarked) [sibutramine], the “reduction in mean body weight gain” value in assay [1] is given as approximately 87%. Besides, in assay [2], the “reduction (protection) in weight gain” value was 44.4%.

These data come from patent US9301987B2, “Anti-adipogenic compositions containing Piper betle and Dolichos biflorus” (LAILA NUTRACEUTICALS, priority 2007, dated 2016).
